Source: patent publication US20090082329A1 (AVENTIS PHARMA S.A., priority 2006, published 2009)
Where two headings read alike, the source gives them in different places.

Experiments:
IGF-1R in MCF7 cells [1] = molecular target: T1, IGF-1R in MCF7 cells (Homo sapiens, UniProt P08069); experiment: Autophosphorylation of IGF-1R in MCF7 cells after stimulation with IGF-1 (ELISA); type: cell-based; parameters: endogenous in cells; host or cells: MCF-7 cells; conditions: MCF-7 cells, compound added one hour before stimulation with IGF1; read-out: Test B IC50
T1 sequence (P08069 31-1367): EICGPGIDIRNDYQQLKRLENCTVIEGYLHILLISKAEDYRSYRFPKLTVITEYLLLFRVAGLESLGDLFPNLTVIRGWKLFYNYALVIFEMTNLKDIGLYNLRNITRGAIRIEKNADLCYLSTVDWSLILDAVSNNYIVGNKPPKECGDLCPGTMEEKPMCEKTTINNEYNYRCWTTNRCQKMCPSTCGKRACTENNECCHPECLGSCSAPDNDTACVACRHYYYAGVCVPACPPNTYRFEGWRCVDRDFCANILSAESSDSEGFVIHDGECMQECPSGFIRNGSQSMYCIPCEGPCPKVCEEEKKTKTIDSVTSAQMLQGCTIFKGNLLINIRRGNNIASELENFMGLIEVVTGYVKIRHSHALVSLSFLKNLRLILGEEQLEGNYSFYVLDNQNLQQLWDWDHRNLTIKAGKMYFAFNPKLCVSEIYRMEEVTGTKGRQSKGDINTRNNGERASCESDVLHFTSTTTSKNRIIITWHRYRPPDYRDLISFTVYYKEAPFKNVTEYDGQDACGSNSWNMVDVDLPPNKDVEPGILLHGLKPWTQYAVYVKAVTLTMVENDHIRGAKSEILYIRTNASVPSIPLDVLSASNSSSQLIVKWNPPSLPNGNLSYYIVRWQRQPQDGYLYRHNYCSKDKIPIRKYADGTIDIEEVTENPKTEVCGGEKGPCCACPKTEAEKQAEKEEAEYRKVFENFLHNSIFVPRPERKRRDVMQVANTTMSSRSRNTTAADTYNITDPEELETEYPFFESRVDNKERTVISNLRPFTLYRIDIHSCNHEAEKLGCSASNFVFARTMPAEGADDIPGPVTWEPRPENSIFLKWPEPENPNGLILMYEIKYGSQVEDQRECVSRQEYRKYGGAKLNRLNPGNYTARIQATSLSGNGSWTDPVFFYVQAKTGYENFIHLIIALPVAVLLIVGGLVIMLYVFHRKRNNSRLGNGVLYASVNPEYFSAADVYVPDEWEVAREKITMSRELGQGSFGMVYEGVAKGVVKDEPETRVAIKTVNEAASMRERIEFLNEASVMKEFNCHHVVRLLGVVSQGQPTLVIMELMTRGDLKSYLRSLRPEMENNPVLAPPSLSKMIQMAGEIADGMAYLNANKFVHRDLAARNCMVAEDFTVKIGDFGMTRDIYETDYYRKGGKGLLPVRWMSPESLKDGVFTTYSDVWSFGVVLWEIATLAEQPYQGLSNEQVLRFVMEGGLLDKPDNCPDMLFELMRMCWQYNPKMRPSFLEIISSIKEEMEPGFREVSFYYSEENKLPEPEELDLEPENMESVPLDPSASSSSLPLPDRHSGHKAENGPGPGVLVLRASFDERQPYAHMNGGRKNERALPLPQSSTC
Description: (§1) B) Measurement of the Autophosphorylation of IGF-1R in MCF7 Cells after Stimulation with IGF-1
(§2) Cell Culturing and Execution of the Test:
(§3) The autophosphorylation of IGF1R in the IGF1-induced cells is evaluated by means of an ELISA technique (Enzyme Linked ImmunoSorbent Assay). The MCF-7 are seeded at 60 000 cells per well in 6-well plates and incubated at 37° C., 5% CO2 in medium containing 10% serum. After one night in 10% serum, the cells are deprived of serum for 24 hours. The compounds are added to the medium one hour before stimulation with IGF1. After 10 minutes of stimulation with IGF1, the cells are lysed with a buffer (Hepes 50 mM pH 7.6, Triton X100 1%, orthovanadate 2 mM, protease inhibitor cocktail). The cell lysates are incubated on a 96-well plate precoated with an anti-IGF1R antibody, followed by incubation with an anti-phosphotyrosine antibody coupled to the enzyme peroxidase. The level of peroxidase activity (measured by OD with a luminescent substrate) reflects the phosphorylation status of the receptor.
(§4) (i) The tests are performed in duplicate and the mean of the two tests is calculated.
(§5) (ii) The value of the signal of the maximum response is calculated from the positive control: cells stimulated with IGF1 without compound.
(§6) (iii) Value of the signal of the minimum response is calculated from the negative control: cells not stimulated with IGF1 without compound.
(§7) (iv) By using these values as maximum (100%) and minimum (0%), respectively, the data were normalized so as to give a percentage of the maximum response.
(§8) (v) A curve of dose response is plotted and the IC50 (the concentration of which the compound induces a 50% decrease in the signal) of the compound is calculated by non-linear regression analysis.

MEF-IGF1R cells = experiment: Proliferation/viability of MEF-IGF1R (Thymidine [14C] incorporation); type: cell-based; conditions: rhIGF1 100 ng/mL, incubation 72 hours, read-out: Test C IC50
Description: C) Measurement of the Proliferation/Viability of MEF-IGF1R
Cell culture: the MEF-IGF1R cells (stable clone of cells transfected with the receptor hIGF-1R) are cultured at 37° C. under 5% CO2 in EMEM medium containing 10% FCS.
Test procedure: the cells are seeded at 5000 cells per well in 96-well Cytostar plates (Amersham) with 0.2 mL of EMEM culture medium at 37° C. for 18 hours. The cells are then washed twice with EMEM medium and left to culture without serum for 24 hours. The compounds are then added at various concentrations in the presence of rhIGF1 (100 ng/mL) and 0.1 μCi of Thymidine [^14C] (specific activity ˜50 mCi/mmol) to give 0.2 mL of volume per well. After incubation for 72 hours in the presence of the compound, at 37° C. under 5% CO2, the incorporation of Thymidine [^14C] is measured by counting the radioactivity on a Microbeta trilux counter (Perkin-Elmer). The IC50 is determined from 10 increasing concentrations of the compound.
as §4, §5, §6, §7, §8

[2] = molecular target: T2, human cytoplasmic domain of IGF-1R (Homo sapiens, UniProt P08069); experiment: Kinase IGF-1R test: inhibition of autophosphorylation of the enzyme (HTRF); type: biochemical; conditions: ATP 120 μM
T2 construct: The human cytoplasmic domain of IGF-1R was cloned by fusion with glutathione S-transferase (GST); made in house; host or cells: SF21 insect cells (baculovirus, pFastBac-GST)
T2 sequence (P08069 960-1367 limits assumed): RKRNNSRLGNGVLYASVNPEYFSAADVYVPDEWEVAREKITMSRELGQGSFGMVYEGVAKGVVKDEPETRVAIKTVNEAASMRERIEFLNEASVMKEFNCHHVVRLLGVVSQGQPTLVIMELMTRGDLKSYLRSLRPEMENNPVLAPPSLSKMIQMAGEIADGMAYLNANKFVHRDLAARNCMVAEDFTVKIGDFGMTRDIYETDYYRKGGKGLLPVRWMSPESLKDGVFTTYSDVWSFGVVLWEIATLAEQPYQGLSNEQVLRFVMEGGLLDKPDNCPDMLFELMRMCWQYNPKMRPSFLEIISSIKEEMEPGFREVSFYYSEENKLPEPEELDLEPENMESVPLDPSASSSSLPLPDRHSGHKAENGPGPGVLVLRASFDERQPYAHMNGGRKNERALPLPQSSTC
Description: A) Experimental Protocol for the Kinase IGF-1R Test:
The inhibitory activity of the compounds on IGF1R is determined by measuring the inhibition of autophosphorylation of the enzyme using a time-resolved fluorescence test (HTRF). The human cytoplasmic domain of IGF-1R was cloned by fusion with glutathione S-transferase (GST) in the baculovirus expression vector pFastBac-GST. The protein is expressed in the SF21 cells and purified to about 80% homogeneity. For the enzymatic test, the test compound at 10 mM dissolved in DMSO is diluted in ⅓ steps in a 50 mM Hepes, pH 7.5, 5 mM MnCl2, 50 mM NaCl, 3% Glycerol, 0.025% Tween 20 buffer. To measure the inhibition, the successive dilutions of the compound are preincubated for 30 minutes and 90 minutes in the presence of 5 nM of enzyme, the final DMSO concentration not exceeding 1%. The enzymatic reaction is initiated to have a final ATP concentration of 120 μM, and is stopped after 5 minutes by addition of 100 mM Hepes, pH 7.0 buffer containing 0.4 M of potassium fluoride, 133 mM EDTA, 0.1% BSA, the XL665-labelled antibody anti-GST and the anti-phosphotyrosine antibody conjugated to europium cryptate Eu—K (Cis-Bio Int.). The characteristics of the two fluorophores, XL-665 and Eu—K, are available in G. Mathis et al., Anticancer Research, 1997, 17, pages 3011-3014. The energy transfer between the excited europium cryptate to the acceptor XL665 is proportional to the degree of autophosphorylation of IGF-1R. The specific long-lasting signal of XL-665 is measured in a GENios Pro TECAN plate counter. The inhibition of autophosphorylation of IGF-1R at time 30 minutes and 90 minutes with the test compounds of the invention is calculated relative to a 1% in DMSO control, whose activity is measured in the absence of compound. The curve representing the percentage of inhibition as a function of the log of the concentration is established to determine the concentration corresponding to 50% inhibition (IC50),

IGF-1R in MCF7 cells [3] = molecular target: T1, IGF-1R in MCF7 cells; experiment: Autophosphorylation of IGF-1R in MCF7 cells after stimulation with IGF-1 (ELISA); type: cell-based; parameters: The autophosphorylation of IGF1R in the IGF1-induced cells is evaluated by means of an ELISA technique; endogenous in cells; host or cells: MCF-7 cells; conditions: MCF-7 cells, compound added one hour before stimulation with IGF1; read-out: Test B IC50
Description: as §1, §2, §3, §4, §5
(iii) Value of the signal of the minimum response is calculated from the negative control: cells not stimulated with IGF1 without compound. […]

[4] = preincubation 30 minutes with 5 nM enzyme, read-out: Test A 30′ IC50
[5] = preincubation 90 minutes with 5 nM enzyme, read-out: Test A 90′ IC50

| SMILES | IC50 (IGF-1R in MCF7 cells [1]) [µM] | IC50 (MEF-IGF1R cells) [µM] | IC50 [2, 4] [µM] | IC50 [2, 5] [µM] | IC50 (IGF-1R in MCF7 cells [3]) [µM] |
| --- | --- | --- | --- | --- | --- |
| CC1(C)C(=O)N(c2ccc(SC(F)(F)F)cc2)C(=O)N1Cc1ccnc(NC(=O)N2CCC2)c1 [Example 27, N-{4-[(5,5-dimethyl-2,4-dioxo-3-{4-[(trifluoro-methyl)thio]phenyl}imidazolidin-1-yl)methyl]pyridin-2-yl}azetidine-1-carboxamide] | 0.01 to 0.1 | < 0.01 | 0.01 to 0.1 | 0.01 to 0.1 | – |
| CC1(C)C(=O)N(c2ccc(SC(F)(F)F)cc2)C(=O)N1Cc1ccnc(NC(=O)N2CCCC2)c1 [Example 28, N-{4-[(5,5-dimethyl-2,4-dioxo-3-{4-[(trifluoromethyl)thio]phenyl}imidazolidin-1-yl)methyl]pyridin-2-yl}pyrrolidine-1-carboxamide] | < 0.01 | 0.01 to 0.1 | 0.01 to 0.1 | 0.01 to 0.1 | – |
| CC1(C)C(=O)N(c2ccc(SC(F)(F)F)cc2)C(=O)N1Cc1ccnc(NC(=O)N2CCOCC2)c1 [Example 29, N-{4-[(5,5-dimethyl-2,4-dioxo-3-{4-[(trifluoro-methyl)thio]phenyl}imidazolidin-1-yl)methyl]pyridin-2-yl}morpholine-4-carboxamide] | 0.01 to 0.1 | 0.01 to 0.1 | 0.01 to 0.1 | 0.01 to 0.1 | – |
| CN1CCN(C(=O)Nc2cc(CN3C(=O)N(c4ccc(SC(F)(F)F)cc4)C(=O)C3(C)C)ccn2)CC1 [Example 30, N-{4-[(5,5-dimethyl-2,4-dioxo-3-{4-[(trifluoro-methyl)thio]phenyl}imidazolidin-1-yl)methyl]pyridin-2-yl}-4-methylpiperazine-1-carboxamide] | 0.01 to 0.1 | > 0.1 | 0.01 to 0.1 | < 0.01 | – |
| CCN(C)C(=O)Nc1cc(CN2C(=O)N(c3ccc(SC(F)(F)F)cc3)C(=O)C2(C)C)ccn1 [Example 34, 3-{4-[(5,5-dimethyl-2,4-dioxo-3-{4-[(trifluoro-methyl)thio]phenyl}imidazolidin-1-yl)methyl]pyridin-2-yl}-1-ethyl-1-methylurea] | 0.01 to 0.1 | 0.01 to 0.1 | 0.01 to 0.1 | 0.01 to 0.1 | – |
| CCCN(C)C(=O)Nc1cc(CN2C(=O)N(c3ccc(SC(F)(F)F)cc3)C(=O)C2(C)C)ccn1 [Example 35, 3-{4-[(5,5-dimethyl-2,4-dioxo-3-{4-[(trifluoromethyl)thio]phenyl}imidazolidin-1-yl)methyl]pyridin-2-yl}-1-methyl-1-propylurea] | 0.01 to 0.1 | 0.01 to 0.1 | 0.01 to 0.1 | 0.01 to 0.1 | – |
| CCCCN(C)C(=O)Nc1cc(CN2C(=O)N(c3ccc(SC(F)(F)F)cc3)C(=O)C2(C)C)ccn1 [Example 36, 1-butyl-3-{4-[(5,5-dimethyl-2,4-dioxo-3-{4-[(trifluoromethyl)thio]phenyl}imidazolidin-1-yl)methyl]pyridin-2-yl}-1-methylurea] | 0.01 to 0.1 | 0.01 to 0.1 | 0.01 to 0.1 | 0.01 to 0.1 | – |
| CN(C)CCCNC(=O)Nc1cc(CN2C(=O)N(c3ccc(SC(F)(F)F)cc3)C(=O)C2(C)C)ccn1 [Example 39, 1-[3-(dimethylamino)propyl]-3-{4-[(5,5-dimethyl-2,4-dioxo-3-{4-[(trifluoromethyl)thio]phenyl}imidazolidin-1-yl)methyl]pyridin-2-yl}urea] | > 0.1 | > 0.1 | 0.01 to 0.1 | 0.01 to 0.1 | – |
| CC1(C)C(=O)N(c2ccc(SC(F)(F)F)cc2)C(=O)N1Cc1ccnc(NC(N)=O)c1 [Example 40A] | – | 0.01 to 0.1 | 0.01 to 0.1 | < 0.01 | < 0.01 |
| CC1(C)C(=O)N(c2ccc(SC(F)(F)F)cc2)C(=O)N1Cc1ccnc(Nc2cccc(F)c2)c1 [Example 40C, 1-({2-[(3-fluorophenyl)amino]pyridin-4-yl}methyl)-5,5-dimethyl-3-{4-[(trifluoromethyl)thio]phenyl}imidazolidine-2,4-dione] | 0.01 to 0.1 | 0.01 to 0.1 | > 0.1 | 0.01 to 0.1 | – |
| CC1(C)C(=O)N(c2ccc(SC(F)(F)F)cc2)C(=O)N1Cc1ccnc(NC2CC2)c1 [Example 40D, 1-{[2-(cyclopropylamino)pyridin-4-yl]methyl}-5,5-dimethyl-3-{4-[(trifluoromethyl)thio]phenyl}imidazolidine-2,4-dione] | 0.01 to 0.1 | > 0.1 | 0.01 to 0.1 | 0.01 to 0.1 | – |
| CC1(C)C(=O)N(c2ccc(SC(F)(F)F)cc2)C(=O)N1Cc1ccnc(Nc2cccnc2Cl)c1 [Example 40E, 1-({2-[(2-chloropyridin-3-yl)amino]pyridin-4-yl}-methyl)-5,5-dimethyl-3-{4-[(trifluoromethyl)thio]phenyl}imidazolidine-2,4-dione] | 0.01 to 0.1 | 0.01 to 0.1 | 0.01 to 0.1 | 0.01 to 0.1 | – |
| CC1(C)C(=O)N(c2ccc(SC(F)(F)F)cc2)C(=O)N1Cc1ccnc(Nc2ccc(Cl)nc2)c1 [Example 40F, 1-({2-[(6-chloropyridin-3-yl)amino]pyridin-4-yl}-methyl)-5,5-dimethyl-3-{4-[(trifluoromethyl)thio]phenyl}imidazolidine-2,4-dione] | > 0.1 | > 0.1 | > 0.1 | 0.01 to 0.1 | – |
| CC1(C)C(=O)N(c2ccc(SC(F)(F)F)cc2)C(=O)N1Cc1ccnc(Nc2ccc(O)nc2)c1 [Example 40G, 1-({2-[(6-hydroxypyridin-3-yl)amino]pyridin-4-yl}-methyl)-5,5-dimethyl-3-{4-[(trifluoromethyl)thio]phenyl}imidazolidine-2,4-dione] | 0.01 to 0.1 | > 0.1 | 0.01 to 0.1 | 0.01 to 0.1 | – |
| COC(=O)Nc1cc(CN2C(=O)N(c3ccc(SC(F)(F)F)cc3)C(=O)C2(C)C)ccn1 [Example 40L, methyl {4-[(5,5-dimethyl-2,4-dioxo-3-{4-[(tri-fluoromethyl)thio]phenyl}imidazolidin-1-yl)methyl]pyridin-2-yl}carbamate] | 0.01 to 0.1 | > 0.1 | 0.01 to 0.1 | < 0.01 | – |
